Patent publication US20260166039A1 (SCHRÖDINGER, INC., priority 2022, published 2026)

What was measured:
Wee1 kinase domain = target: T1, Wee1 kinase domain (Homo sapiens, UniProt P30291); experiment: Wee1 Kinase Biochemical Assay (ADP-Glo); details: class symbols; 1 nM Wee1 enzyme, 15 uM ATP, 4 hours at 25° C.
T1 construct: Wee1 kinase domain was purchased from Carna (catalog #05-177); purchased Carna 05-177
Outline: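 Compounds tested against 1 nM Wee1 kinase domain in Tris buffer containing 20 mM MgCl2, BSA and 2 mM DTT, with 15 uM ATP and poly(Lys,Tyr) substrate for 4 h at 25 °C. Luminescent ADP detection gave percent inhibition, normalized to DMSO and saturating inhibitor.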

[1] = tested on: phosphorylation of Cdc2 Y15 (Wee1 substrate) in A427 cells; experiment: Phosphorylated Cdc2 MSD Electrochemiluminescence Assay; format: cell-based; details: Homo sapiens, A-427, class symbols, read-out: A427 pCDC2 MSD IC50
Outline: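 Read-out: percent residual phospho-Cdc2 Y15 relative to DMSO and positive-control Wee1 inhibitor, measured by MSD electrochemiluminescence capture/detection antibody assay in cell lysates. A427 cells received duplicate 3-fold compound dilution series 20 h post-seeding, with 6 h total incubation at 37 °C.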

T1 sequence (P30291 299-569 limits assumed): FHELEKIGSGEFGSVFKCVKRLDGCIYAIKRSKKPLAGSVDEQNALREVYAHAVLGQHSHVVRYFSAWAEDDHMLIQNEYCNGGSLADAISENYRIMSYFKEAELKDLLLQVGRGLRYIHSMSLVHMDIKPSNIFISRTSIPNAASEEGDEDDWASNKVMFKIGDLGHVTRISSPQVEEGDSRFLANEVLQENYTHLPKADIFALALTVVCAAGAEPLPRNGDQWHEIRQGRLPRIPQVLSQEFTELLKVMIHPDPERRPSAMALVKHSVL

SMILES | IC50 (Wee1 kinase domain) | IC50 [1]
Cc1cc(Nc2ncc3c(n2)N(c2cccc(N4CCOC4=O)n2)[C@@H]2CC(C)(C)OC[C@]32C)ccc1N1C[C@@H]2C[C@H]1CN2C [Example 654, 3-(6-((4bR,8aR)-4b,7,7-trimethyl-2-((3-methyl-4-((1S,4S)-5-methyl-2,5-diazabicyclo[2.2.1]heptan-2-yl)phenyl)amino)-4b,7,8,8a-tetrahydropyrano[3′,4′:4,5]pyrrolo[2,3-d]pyrimidin-9(5H)-yl)pyridin-2-yl)oxazolidin-2-one] | < 10 nM | 100 to 1000 nM
C[C@H]1CCC(=O)N1c1cccc(N2c3nc(Nc4ccc(N5C[C@H]6C[C@@H]5CN6C)cc4)ncc3[C@@]3(C)COC(C)(C)C[C@@H]23)n1 [Example 657, (S)-5-methyl-1-(6-((4bR,8aR)-4b,7,7-trimethyl-2-((4-((1R,4R)-5-methyl-2,5-diazabicyclo[2.2.1]heptan-2-yl)phenyl)amino)-4b,7,8,8a-tetrahydropyrano[3′,4′:4,5]pyrrolo[2,3-d]pyrimidin-9(5H)-yl)pyridin-2-yl)pyrrolidin-2-one] | < 10 nM | 100 to 1000 nM
Cc1cc(Nc2ncc3c(n2)N(c2cccc(N4CCCC4=O)n2)[C@@H]2CC(C)(C)OC[C@]32C)ccc1N1C[C@H]2C[C@@H]1CN2C [Example 658, 1-(6-((4bR,8aR)-4b,7,7-trimethyl-2-((3-methyl-4-((1R,4R)-5-methyl-2,5-diazabicyclo[2.2.1]heptan-2-yl)phenyl)amino)-4b,7,8,8a-tetrahydropyrano[3′,4′:4,5]pyrrolo[2,3-d]pyrimidin-9(5H)-yl)pyridin-2-yl)pyrrolidin-2-one] | < 10 nM | 100 to 1000 nM
Cc1cc(Nc2ncc3c(n2)N(c2cccc(N4CCOC4=O)n2)[C@@H]2CC(C)(C)OC[C@]32C)ccc1N1C[C@H]2C[C@@H]1CN2C [Example 660, 3-(6-((4bR,8aR)-4b,7,7-trimethyl-2-((3-methyl-4-((1R,4R)-5-methyl-2,5-diazabicyclo[2.2.1]heptan-2-yl)phenyl)amino)-4b,7,8,8a-tetrahydropyrano[3′,4′:4,5]pyrrolo[2,3-d]pyrimidin-9(5H)-yl)pyridin-2-yl)oxazolidin-2-one] | < 10 nM | 100 to 1000 nM
CC1(C)C[C@H]2N(c3cccc(N4CCCC4=O)n3)c3nc(Nc4ccc(C5CNC5)cc4)ncc3[C@@]2(C)CO1 [Example 662, 1-(6-((4bR,8aR)-2-((4-(azetidin-3-yl)phenyl)amino)-4b,7,7-trimethyl-4b,7,8,8a-tetrahydropyrano[3′,4′:4,5]pyrrolo[2,3-d]pyrimidin-9(5H)-yl)pyridin-2-yl)pyrrolidin-2-one] | < 10 nM | 100 to 1000 nM
CC1(C)C[C@H]2N(c3cccc(N4CCOC4=O)n3)c3nc(Nc4ccc([C@]5(C)CCNC5)cc4)ncc3[C@@]2(C)CO1 [Example 664, 3-(6-((4bR,8aR)-4b,7,7-trimethyl-2-((4-((S)-3-methylpyrrolidin-3-yl)phenyl)amino)-4b,7,8,8a-tetrahydropyrano[3′,4′:4,5]pyrrolo[2,3-d]pyrimidin-9(5H)-yl)pyridin-2-yl)oxazolidin-2-one] | < 10 nM | 100 to 1000 nM
CC1(C)C[C@H]2N(c3cccc(N4CCOC4=O)n3)c3nc(Nc4ccc(C5CNC5)cc4)ncc3[C@@]2(C)CO1 [Example 666, 3-(6-((4bR,8aR)-2-((4-(azetidin-3-yl)phenyl)amino)-4b,7,7-trimethyl-4b,7,8,8a-tetrahydropyrano[3′,4′:4,5]pyrrolo[2,3-d]pyrimidin-9(5H)-yl)pyridin-2-yl)oxazolidin-2-one] | < 10 nM | 100 to 1000 nM
CN1C[C@H]2C[C@@H]1CN2c1ccc(Nc2ncc3c(n2)N(c2cccc(N4CCOC4=O)n2)[C@@H]2CC(C)(C)OC[C@]32C)cc1F [Example 668, 3-(6-((4bR,8aR)-2-((3-fluoro-4-((1R,4R)-5-methyl-2,5-diazabicyclo[2.2.1]heptan-2-yl)phenyl)amino)-4b,7,7-trimethyl-4b,7,8,8a-tetrahydropyrano[3′,4′:4,5]pyrrolo[2,3-d]pyrimidin-9(5H)-yl)pyridin-2-yl)oxazolidin-2-one] | < 10 nM | 100 to 1000 nM
CN1CC[C@@](C)(c2ccc(Nc3ncc4c(n3)N(c3cccc(N5CCOC5=O)n3)[C@@H]3CC(C)(C)OC[C@]43C)cc2)C1 [Example 670, 3-(6-((4bR,8aR)-2-((4-((S)-1,3-dimethylpyrrolidin-3-yl)phenyl)amino)-4b,7,7-trimethyl-4b,7,8,8a-tetrahydropyrano[3′,4′:4,5]pyrrolo[2,3-d]pyrimidin-9(5H)-yl)pyridin-2-yl)oxazolidin-2-one] | < 10 nM | 100 to 1000 nM
CC1(C)C[C@H]2N(c3cccc(N4CCOC4=O)n3)c3nc(Nc4ccc([C@H]5CNC[C@H]5F)cc4)ncc3[C@@]2(C)CO1 [Example 672, 3-(6-((4bR,8aR)-2-((4-((3S,4S)-4-fluoropyrrolidin-3-yl)phenyl)amino)-4b,7,7-trimethyl-4b,7,8,8a-tetrahydropyrano[3′,4′:4,5]pyrrolo[2,3-d]pyrimidin-9(5H)-yl)pyridin-2-yl)oxazolidin-2-one] | < 10 nM | 100 to 1000 nM
CC1(C)C[C@H]2N(c3cccc(N4CCOC4=O)n3)c3nc(Nc4ccc([C@@H]5CNC[C@@H]5F)cc4)ncc3[C@@]2(C)CO1 [Example 675, 3-(6-((4bR,8aR)-2-((4-((3R,4R)-4-fluoropyrrolidin-3-yl)phenyl)amino)-4b,7,7-trimethyl-4b,7,8,8a-tetrahydropyrano[3′,4′:4,5]pyrrolo[2,3-d]pyrimidin-9(5H)-yl)pyridin-2-yl)oxazolidin-2-one] | < 10 nM | 100 to 1000 nM
CN1C[C@@H]2C[C@H]1CN2c1ccc(Nc2ncc3c(n2)N(c2cccc(N4CCOC4=O)n2)[C@@H]2CC(C)(C)OC[C@]32C)cc1F [Example 676, 3-(6-((4bR,8aR)-2-((3-fluoro-4-((1S,4S)-5-methyl-2,5-diazabicyclo[2.2.1]heptan-2-yl)phenyl)amino)-4b,7,7-trimethyl-4b,7,8,8a-tetrahydropyrano[3′,4′:4,5]pyrrolo[2,3-d]pyrimidin-9(5H)-yl)pyridin-2-yl)oxazolidin-2-one] | < 10 nM | 100 to 1000 nM
CC1(C)C[C@H]2N(c3cccc(N4CCOC4=O)n3)c3nc(Nc4ccc([C@@H]5CNCC5(F)F)cc4)ncc3[C@@]2(C)CO1 [Example 680, 3-(6-((4bR,8aR)-2-((4-((R)-4,4-difluoropyrrolidin-3-yl)phenyl)amino)-4b,7,7-trimethyl-4b,7,8,8a-tetrahydropyrano[3′,4′:4,5]pyrrolo[2,3-d]pyrimidin-9(5H)-yl)pyridin-2-yl)oxazolidin-2-one] | < 10 nM | 100 to 1000 nM
CC1(C)C[C@H]2N(c3cccc(N4CCOC4=O)n3)c3nc(Nc4ccc([C@H]5CNCC5(F)F)cc4)ncc3[C@@]2(C)CO1 [Example 682, 3-(6-((4bR,8aR)-2-((4-((S)-4,4-difluoropyrrolidin-3-yl)phenyl)amino)-4b,7,7-trimethyl-4b,7,8,8a-tetrahydropyrano[3′,4′:4,5]pyrrolo[2,3-d]pyrimidin-9(5H)-yl)pyridin-2-yl)oxazolidin-2-one] | < 10 nM | 100 to 1000 nM
CN1CC[C@H]2CN(c3ccc(Nc4ncc5c(n4)N(c4cccc(N6CCOC6=O)n4)[C@@H]4CC(C)(C)OC[C@]54C)cc3)C[C@H]21 [Example 684, 3-(6-((4bR,8aR)-4b,7,7-trimethyl-2-((4-((3aS,6aS)-1-methylhexahydropyrrolo[3,4-b]pyrrol-5(1H)-yl)phenyl)amino)-4b,7,8,8a-tetrahydropyrano[3′,4′:4,5]pyrrolo[2,3-d]pyrimidin-9(5H)-yl)pyridin-2-yl)oxazolidin-2-one] | < 10 nM | 100 to 1000 nM
CN1CC[C@@H]2CN(c3ccc(Nc4ncc5c(n4)N(c4cccc(N6CCCC6=O)n4)[C@@H]4CC(C)(C)OC[C@]54C)cc3)C[C@@H]21 [Example 686, 1-(6-((4bR,8aR)-4b,7,7-trimethyl-2-((4-((3aR,6aR)-1-methylhexahydropyrrolo[3,4-b]pyrrol-5(1H)-yl)phenyl)amino)-4b,7,8,8a-tetrahydropyrano[3′,4′:4,5]pyrrolo[2,3-d]pyrimidin-9(5H)-yl)pyridin-2-yl)pyrrolidin-2-one] | < 10 nM | 100 to 1000 nM
CN1CC[C@H]2CN(c3ccc(Nc4ncc5c(n4)N(c4cccc(N6CCCC6=O)n4)[C@@H]4CC(C)(C)OC[C@]54C)cc3)C[C@H]21 [Example 688, 1-(6-((4bR,8aR)-4b,7,7-trimethyl-2-((4-((3aS,6aS)-1-methylhexahydropyrrolo[3,4-b]pyrrol-5(1H)-yl)phenyl)amino)-4b,7,8,8a-tetrahydropyrano[3′,4′:4,5]pyrrolo[2,3-d]pyrimidin-9(5H)-yl)pyridin-2-yl)pyrrolidin-2-one] | < 10 nM | < 100 nM
CN1CC2(C1)CN(c1ccc(Nc3ncc4c(n3)N(c3cccc(N5CCCC5=O)n3)[C@@H]3CC(C)(C)OC[C@]43C)cc1)C2 [Example 690, 1-(6-((4bR,8aR)-4b,7,7-trimethyl-2-((4-(6-methyl-2,6-diazaspiro[3.3]heptan-2-yl)phenyl)amino)-4b,7,8,8a-tetrahydropyrano[3′,4′:4,5]pyrrolo[2,3-d]pyrimidin-9(5H)-yl)pyridin-2-yl)pyrrolidin-2-one] | < 10 nM | 100 to 1000 nM
CN1C[C@@H]2CN(c3ccc(Nc4ncc5c(n4)N(c4cccc(N6CCOC6=O)n4)[C@@H]4CC(C)(C)OC[C@]54C)cc3)C[C@@H]2C1 [Example 692, 3-(6-((4bR,8aR)-4b,7,7-trimethyl-2-((4-((3aR,6aS)-5-methylhexahydropyrrolo[3,4-c]pyrrol-2(1H)-yl)phenyl)amino)-4b,7,8,8a-tetrahydropyrano[3′,4′:4,5]pyrrolo[2,3-d]pyrimidin-9(5H)-yl)pyridin-2-yl)oxazolidin-2-one] | < 10 nM | 100 to 1000 nM
